Publication PMC4770715, “LIM kinase inhibitors disrupt mitotic microtubule organization and impair tumor cell proliferation” (Oncotarget, 2015)

Key:
Test in all cases: biochemical
Parameters in all cases: KINOMEscan active-site competition binding, percent of control (100 = no competition)
Conditions in all cases: competition binding, percent control
RAF1 = RAF1 (Homo sapiens, UniProt P04049)
TBK1 = TBK1 (Homo sapiens, UniProt Q9UHD2)
FLT3(ITD) = FLT3(ITD) (Homo sapiens, UniProt P36888, ITD)
[1] = target: T1, RPS6KA5(Kin.Dom.2-C-terminal) (Homo sapiens, UniProt O75582)
T1 construct: Kin.Dom.2-C-terminal

[2] = target: EGFR(L747-E749del, A750P) (Homo sapiens, UniProt P00533, A750P/DEL747-749)
PIK4CB = target: T2, PIK4CB (Homo sapiens, UniProt Q9UBF8)
T2 construct: gene PI4KB

IRAK3 = IRAK3 (Homo sapiens, UniProt Q9Y616)
PRKD1 = PRKD1 (Homo sapiens, UniProt Q15139)
RIPK5 = target: T3, RIPK5 (Homo sapiens, UniProt Q6XUX3)
T3 construct: gene DSTYK

VEGFR2 = target: T4, VEGFR2 (Homo sapiens, UniProt P35968)
T4 construct: gene KDR

PFCDPK1(P.falciparum) = target: T5, PFCDPK1(P.falciparum) (Plasmodium falciparum, UniProt P62344)
T5 construct: gene CDPK1

PIP5K1C = PIP5K1C (Homo sapiens, UniProt O60331)
[3] = target: T6, RSK4(Kin.Dom.2-C-terminal) (Homo sapiens, UniProt Q9UK32)
T6 construct: gene RPS6KA6; Kin.Dom.2-C-terminal

IRAK1 = IRAK1 (Homo sapiens, UniProt P51617)
[4] = target: T7, ABL1(M351T)-phosphorylated (Homo sapiens, UniProt P00519, M351T)
T7 construct: phosphorylated

SgK110 = target: T8, SgK110 (Homo sapiens, UniProt P0C264)
T8 construct: gene SBK3

FGFR4 = FGFR4 (Homo sapiens, UniProt P22455)
CIT = CIT (Homo sapiens, UniProt O14578)
CSK = CSK (Homo sapiens, UniProt P41240)
CDK4-cyclinD3 = target: T9, CDK4-cyclinD3 (Homo sapiens, UniProt P11802)
T9 construct: cyclinD3

MST2 = target: T10, MST2 (Homo sapiens, UniProt Q13188)
T10 construct: gene STK3

AXL = AXL (Homo sapiens, UniProt P30530)

Sequence of FGFR4 (P22455 whole entry): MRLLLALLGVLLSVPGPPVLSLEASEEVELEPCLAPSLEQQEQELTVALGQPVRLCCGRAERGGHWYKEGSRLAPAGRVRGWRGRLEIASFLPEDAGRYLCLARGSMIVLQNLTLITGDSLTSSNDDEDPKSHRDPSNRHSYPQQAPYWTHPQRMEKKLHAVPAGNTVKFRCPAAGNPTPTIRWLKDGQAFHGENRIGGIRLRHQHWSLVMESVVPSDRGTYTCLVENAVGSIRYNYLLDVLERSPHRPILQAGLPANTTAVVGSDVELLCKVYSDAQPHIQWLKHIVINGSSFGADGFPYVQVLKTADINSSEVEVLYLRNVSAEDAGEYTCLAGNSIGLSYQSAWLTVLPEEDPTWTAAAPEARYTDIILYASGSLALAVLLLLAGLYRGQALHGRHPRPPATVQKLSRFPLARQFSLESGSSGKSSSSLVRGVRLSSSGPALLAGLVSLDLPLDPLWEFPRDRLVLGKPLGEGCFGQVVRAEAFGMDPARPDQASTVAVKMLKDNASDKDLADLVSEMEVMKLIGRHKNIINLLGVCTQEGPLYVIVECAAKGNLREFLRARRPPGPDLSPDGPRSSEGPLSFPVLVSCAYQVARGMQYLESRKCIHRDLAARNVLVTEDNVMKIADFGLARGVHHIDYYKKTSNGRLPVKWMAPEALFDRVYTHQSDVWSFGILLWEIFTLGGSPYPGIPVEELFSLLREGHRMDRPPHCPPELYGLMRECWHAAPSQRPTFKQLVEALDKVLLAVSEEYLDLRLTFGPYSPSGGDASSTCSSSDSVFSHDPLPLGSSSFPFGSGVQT
T10 sequence (Q13188 whole entry): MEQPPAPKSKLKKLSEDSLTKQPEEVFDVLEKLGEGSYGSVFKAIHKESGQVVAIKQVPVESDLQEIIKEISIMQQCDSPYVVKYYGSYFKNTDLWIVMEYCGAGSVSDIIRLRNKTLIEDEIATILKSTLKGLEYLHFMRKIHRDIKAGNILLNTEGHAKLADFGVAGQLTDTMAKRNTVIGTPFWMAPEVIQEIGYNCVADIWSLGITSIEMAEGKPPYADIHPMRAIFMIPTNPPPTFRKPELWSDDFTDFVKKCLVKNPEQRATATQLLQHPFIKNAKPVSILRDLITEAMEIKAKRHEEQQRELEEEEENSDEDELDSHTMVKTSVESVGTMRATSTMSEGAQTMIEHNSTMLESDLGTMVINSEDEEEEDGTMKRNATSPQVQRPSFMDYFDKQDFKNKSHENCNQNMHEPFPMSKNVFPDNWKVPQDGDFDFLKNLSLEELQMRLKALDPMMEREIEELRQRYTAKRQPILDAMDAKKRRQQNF
T6 sequence (Q9UK32 whole entry): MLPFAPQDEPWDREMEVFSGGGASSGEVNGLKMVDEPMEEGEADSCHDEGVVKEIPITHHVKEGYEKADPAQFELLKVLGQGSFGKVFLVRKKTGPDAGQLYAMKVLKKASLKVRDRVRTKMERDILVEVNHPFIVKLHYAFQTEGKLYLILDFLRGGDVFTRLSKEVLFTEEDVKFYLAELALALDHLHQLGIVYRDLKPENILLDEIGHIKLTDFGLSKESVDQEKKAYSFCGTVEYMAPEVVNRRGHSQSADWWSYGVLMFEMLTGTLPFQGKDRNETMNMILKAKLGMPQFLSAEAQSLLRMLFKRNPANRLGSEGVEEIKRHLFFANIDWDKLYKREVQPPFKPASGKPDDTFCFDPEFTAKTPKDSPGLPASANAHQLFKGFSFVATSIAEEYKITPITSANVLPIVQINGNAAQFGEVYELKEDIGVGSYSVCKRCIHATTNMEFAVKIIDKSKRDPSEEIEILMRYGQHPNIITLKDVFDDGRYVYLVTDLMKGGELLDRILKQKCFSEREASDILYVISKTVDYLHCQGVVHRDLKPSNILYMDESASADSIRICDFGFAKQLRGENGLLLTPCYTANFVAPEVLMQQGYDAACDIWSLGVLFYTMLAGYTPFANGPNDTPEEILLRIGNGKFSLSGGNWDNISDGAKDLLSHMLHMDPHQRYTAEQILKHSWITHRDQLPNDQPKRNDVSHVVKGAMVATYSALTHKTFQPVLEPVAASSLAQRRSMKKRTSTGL
Sequence of CSK (P41240 whole entry): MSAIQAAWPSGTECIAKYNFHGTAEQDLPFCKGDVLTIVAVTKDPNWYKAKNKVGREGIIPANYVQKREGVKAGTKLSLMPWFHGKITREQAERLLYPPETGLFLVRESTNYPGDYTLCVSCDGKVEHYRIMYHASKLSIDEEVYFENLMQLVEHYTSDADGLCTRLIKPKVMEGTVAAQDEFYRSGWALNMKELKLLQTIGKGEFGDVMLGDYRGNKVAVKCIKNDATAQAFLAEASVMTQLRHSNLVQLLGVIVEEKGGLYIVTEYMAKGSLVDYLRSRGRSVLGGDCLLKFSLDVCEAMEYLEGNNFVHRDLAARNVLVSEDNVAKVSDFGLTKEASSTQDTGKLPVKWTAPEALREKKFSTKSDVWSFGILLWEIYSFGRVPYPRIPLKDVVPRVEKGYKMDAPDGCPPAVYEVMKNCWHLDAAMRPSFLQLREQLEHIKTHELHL
T4 sequence (P35968 whole entry): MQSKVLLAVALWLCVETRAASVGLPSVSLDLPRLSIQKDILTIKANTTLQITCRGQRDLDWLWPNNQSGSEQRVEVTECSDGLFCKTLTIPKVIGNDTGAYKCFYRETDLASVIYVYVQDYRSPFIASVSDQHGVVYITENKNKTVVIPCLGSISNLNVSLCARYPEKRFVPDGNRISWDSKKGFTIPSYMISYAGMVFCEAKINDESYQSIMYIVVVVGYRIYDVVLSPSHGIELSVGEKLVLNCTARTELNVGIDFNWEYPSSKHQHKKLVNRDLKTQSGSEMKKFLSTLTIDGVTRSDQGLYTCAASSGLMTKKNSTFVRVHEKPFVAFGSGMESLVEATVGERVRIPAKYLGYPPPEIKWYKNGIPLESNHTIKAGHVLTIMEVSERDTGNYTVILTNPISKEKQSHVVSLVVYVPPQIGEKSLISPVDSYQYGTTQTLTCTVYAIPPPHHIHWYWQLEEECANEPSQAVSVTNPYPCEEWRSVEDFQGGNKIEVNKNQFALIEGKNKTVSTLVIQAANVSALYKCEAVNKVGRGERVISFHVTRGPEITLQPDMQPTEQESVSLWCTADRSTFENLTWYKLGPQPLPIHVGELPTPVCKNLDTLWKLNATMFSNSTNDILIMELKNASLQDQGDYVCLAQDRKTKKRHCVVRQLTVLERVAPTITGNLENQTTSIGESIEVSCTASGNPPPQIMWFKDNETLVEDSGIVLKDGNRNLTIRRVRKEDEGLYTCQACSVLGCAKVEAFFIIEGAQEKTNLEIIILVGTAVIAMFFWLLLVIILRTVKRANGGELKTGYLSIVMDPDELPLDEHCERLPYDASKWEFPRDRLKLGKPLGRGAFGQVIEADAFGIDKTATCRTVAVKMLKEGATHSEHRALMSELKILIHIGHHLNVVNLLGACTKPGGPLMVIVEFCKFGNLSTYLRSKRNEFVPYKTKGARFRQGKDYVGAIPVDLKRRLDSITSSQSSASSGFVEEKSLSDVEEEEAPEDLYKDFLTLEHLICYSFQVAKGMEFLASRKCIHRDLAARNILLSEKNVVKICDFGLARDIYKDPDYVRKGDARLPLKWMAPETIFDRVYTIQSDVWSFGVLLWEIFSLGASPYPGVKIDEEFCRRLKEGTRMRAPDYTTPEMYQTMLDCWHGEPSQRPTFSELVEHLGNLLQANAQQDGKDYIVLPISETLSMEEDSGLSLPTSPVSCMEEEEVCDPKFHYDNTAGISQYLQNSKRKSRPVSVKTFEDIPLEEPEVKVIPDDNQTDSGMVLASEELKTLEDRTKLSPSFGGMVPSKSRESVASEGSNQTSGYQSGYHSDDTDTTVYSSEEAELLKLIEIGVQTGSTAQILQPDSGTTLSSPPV
Sequence of PRKD1 (Q15139 whole entry): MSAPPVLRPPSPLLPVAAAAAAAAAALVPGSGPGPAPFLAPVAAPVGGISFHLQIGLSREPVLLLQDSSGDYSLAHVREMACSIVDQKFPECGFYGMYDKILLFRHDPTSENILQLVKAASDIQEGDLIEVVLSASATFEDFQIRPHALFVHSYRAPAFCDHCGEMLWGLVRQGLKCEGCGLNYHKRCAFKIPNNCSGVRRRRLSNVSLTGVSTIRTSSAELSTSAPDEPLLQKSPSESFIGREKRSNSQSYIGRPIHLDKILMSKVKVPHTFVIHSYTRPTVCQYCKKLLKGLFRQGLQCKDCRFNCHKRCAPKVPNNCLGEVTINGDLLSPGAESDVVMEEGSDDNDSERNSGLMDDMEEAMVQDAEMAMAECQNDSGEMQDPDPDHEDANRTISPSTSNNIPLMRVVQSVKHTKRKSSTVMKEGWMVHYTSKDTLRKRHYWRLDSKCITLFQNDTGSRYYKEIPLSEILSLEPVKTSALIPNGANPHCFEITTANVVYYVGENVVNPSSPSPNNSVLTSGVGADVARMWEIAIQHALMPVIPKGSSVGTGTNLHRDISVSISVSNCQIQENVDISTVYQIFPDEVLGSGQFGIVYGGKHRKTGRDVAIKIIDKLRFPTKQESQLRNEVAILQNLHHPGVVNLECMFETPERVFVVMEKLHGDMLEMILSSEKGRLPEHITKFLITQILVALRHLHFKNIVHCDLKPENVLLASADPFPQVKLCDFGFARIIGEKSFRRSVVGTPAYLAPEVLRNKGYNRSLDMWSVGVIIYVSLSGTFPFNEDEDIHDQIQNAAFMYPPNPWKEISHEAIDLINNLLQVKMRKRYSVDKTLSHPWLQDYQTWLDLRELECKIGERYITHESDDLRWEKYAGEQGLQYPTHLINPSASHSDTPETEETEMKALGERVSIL

## COc1ccc(-c2cnccc2-c2cnc(NC(=O)C(C)C)s2)c(C(F)(F)F)c1 [CRT0105446, N-{5-[3-(4-Methoxy-2-trifluoromethyl-phenyl)-pyridin-4-yl]-hiazol-2-yl}-isobutyramide]
RAF1
  remaining binding at 10 µM: 100%
TBK1
  remaining binding at 10 µM: 82%
FLT3(ITD)
  remaining binding at 10 µM: 79%
[1]
  remaining binding at 10 µM: 86%
[2]
  remaining binding at 10 µM: 98%
PIK4CB
  remaining binding at 10 µM: 80%
IRAK3
  remaining binding at 10 µM: 89%
PRKD1
  remaining binding at 10 µM: 88%
RIPK5
  remaining binding at 10 µM: 86%
VEGFR2
  remaining binding at 10 µM: 73%
PFCDPK1(P.falciparum)
  remaining binding at 10 µM: 30%
PIP5K1C
  remaining binding at 10 µM: 60%
[3]
  remaining binding at 10 µM: 16%
IRAK1
  remaining binding at 10 µM: 94%
[4]
  remaining binding at 10 µM: 83%
SgK110
  remaining binding at 10 µM: 100%
FGFR4
  remaining binding at 10 µM: 90%
CIT
  remaining binding at 10 µM: 37%
CSK
  remaining binding at 10 µM: 91%
CDK4-cyclinD3
  remaining binding at 10 µM: 48%
MST2
  remaining binding at 10 µM: 100%
AXL
  remaining binding at 10 µM: 87%

## Cc1ccc(-c2cnccc2-c2cnc(Nc3ccc(O)cc3)s2)c(Cl)c1 [CRT0105950, 4-{5-[3-(2-Chloro-4-methyl-phenyl)-pyridin-4-yl]-thiazol-2-ylamino}-phenol]
RAF1
  remaining binding at 10 µM: 85%
TBK1
  remaining binding at 10 µM: 52%
FLT3(ITD)
  remaining binding at 10 µM: 4.4%
[1]
  remaining binding at 10 µM: 89%
[2]
  remaining binding at 10 µM: 64%
PIK4CB
  remaining binding at 10 µM: 2.9%
IRAK3
  remaining binding at 10 µM: 8.1%
PRKD1
  remaining binding at 10 µM: 18%
RIPK5
  remaining binding at 10 µM: 45%
VEGFR2
  remaining binding at 10 µM: 45%
PFCDPK1(P.falciparum)
  remaining binding at 10 µM: 17%
PIP5K1C
  remaining binding at 10 µM: 100%
[3]
  remaining binding at 10 µM: 2.9%
IRAK1
  remaining binding at 10 µM: 56%
[4]
  remaining binding at 10 µM: 66%
SgK110
  remaining binding at 10 µM: 25%
FGFR4
  remaining binding at 10 µM: 29%
CIT
  remaining binding at 10 µM: 44%
CSK
  remaining binding at 10 µM: 71%
CDK4-cyclinD3
  remaining binding at 10 µM: 13%
MST2
  remaining binding at 10 µM: 0.7%
AXL
  remaining binding at 10 µM: 43%
